According to US12421211B2, “Heterocyclic compounds” (Hoffmann-La Roche Inc., priority 2021, dated 2025):
Where a name gives a salt, the structure may show the parent alone.

System: Acinetobacter baumannii ATCC17961
Assay: Antimicrobial susceptibility testing: 90% growth inhibitory concentration (IC90) determination
Type: cell-based
Conditions: Acinetobacter baumannii, ATCC17961, 16 h, 90% growth inhibitory concentration, Acinetobacter baumannii ATCC17961, Iso-Sensitest broth, OD 600 nm over 16 h; read-out: ATCC 17961 IC90
Outline: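 A. baumannii ATCC17961 at ~5×10^5 CFU/ml in Iso-Sensitest broth exposed to 10-point twofold dilutions (e.g. 50–0.097 μM final), 35±2° C. OD600 read every 20 minutes over 16h; IC50 and IC90 derived from inhibition during logarithmic growth.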

Q: With `Cn1cc(-c2ccc(-c3cnc(C(=O)Nc4ccc(C(=O)N5CCN(C(=O)C6CCNCC6)CC5)c(Cl)c4)n3C)c(F)c2F)cn1` [Example E20, N-[3-chloro-4-[4-(piperidine-4-carbonyl)piperazine-1-carbonyl]phenyl]-5-[2,3-difluoro-4-(1-methyl-pyrazol-4-yl)phenyl]-1-methyl-imidazole-2-carboxamide] as the compound, how does the IC90 read?
A: 530 nM

Q: Which IC90 does the source give for `COCCn1ncc(-c2ccc(-c3cnc(C(=O)Nc4ccc(C(=O)N5CCC(C(=O)N6CC[N+](C)(CC(N)=O)CC6)CC5)c(Cl)c4)n3C)c(F)c2F)c1C` [Example B15, N-[4-[4-[4-(2-amino-2-oxo-ethyl)-4-methyl-piperazin-4-ium-1-carbonyl]piperidine-1-carbonyl]-3-chloro-phenyl]-5-[2,3-difluoro-4-[1-(2-methoxyethyl)-5-methyl-pyrazol-4-yl]phenyl]-1-methyl-imidazole-2-carboxamide; formate] here?
A: 170 nM

Q: `COCCn1cc(-c2ccc(-c3cnc(C(=O)Nc4ccc(C(=O)N5CCN(C(=O)[C@@H]6C[C@@H](O)CN6)CC5)c(Cl)c4)n3C)c(F)c2F)c(C)n1` [Example D31, N-[3-chloro-4-[4-[(2S,4R)-4-hydroxypyrrolidine-2-carbonyl]piperazine-1-carbonyl]phenyl]-5-[2,3-difluoro-4-[1-(2-methoxyethyl)-3-methyl-pyrazol-4-yl]phenyl]-1-methyl-imidazole-2-carboxamide; formic acid] was tested. Which IC90 did it give?
A: 220 nM

Q: Which IC90 does the source give for `Cc1c(-c2ccc(-c3cnc(C(=O)Nc4ccc(C(=O)N5CCN(C(=O)C6CC[N+](C)(C)CC6)CC5)c(Cl)c4)n3C)c(F)c2F)cnn1CCNC(=O)Nc1ccccn1` [Example H6, N-[3-chloro-4-[4-(1,1-dimethylpiperidin-1-ium-4-carbonyl)piperazine-1-carbonyl]phenyl]-5-[2,3-difluoro-4-[5-methyl-1-[2-(2-pyridylcarbamoylamino)ethyl]pyrazol-4-yl]phenyl]-1-methyl-imidazole-2-carboxamide; formate] here?
A: 170 nM

Q: Which IC90 does the source give for `Cn1c(-c2ccc(-c3cn(CCS(C)(=O)=O)nc3C(F)(F)F)c(F)c2F)cnc1C(=O)Nc1ccc(C(=O)N2CCN(C(=O)C3CC[N+](C)(C)CC3)CC2)c(Cl)c1` [Example F32, N-[3-chloro-4-[4-(1,1-dimethylpiperidin-1-ium-4-carbonyl)piperazine-1-carbonyl]phenyl]-5-[2,3-difluoro-4-[1-(2-methylsulfonylethyl)-3-(trifluoro-methyl)pyrazol-4-yl]phenyl]-1-methyl-imidazole-2-carboxamide; formate] here?
A: 580 nM

Q: For `COCCn1ncc(-c2ccc(-c3cnc(C(=O)Nc4ccc(C(=O)N5CCN(C(=O)[C@@H]6CCC(=O)N6)CC5)c(Cl)c4)n3C)c(F)c2F)c1C` [Example D26, N-[3-chloro-4-[4-[(2S)-5-oxopyrrolidine-2-carbonyl]piperazine-1-carbonyl]phenyl]-5-[2,3-difluoro-4-[1-(2-methoxyethyl)-5-methyl-pyrazol-4-yl]phenyl]-1-methyl-imidazole-2-carboxamide; 2,2,2-trifluoroacetic acid], which IC90 is on record?
A: 190 nM

Q: How did the IC90 turn out when `COCCn1cc(-c2ccc(-c3cnc(C(=O)Nc4ccc(C(=O)N5CCN(C(=O)C6CC[N+](C)(C)CC6)CC5)c(Cl)c4)n3C)c(F)c2F)c(CO)n1` [Example F25, N-[3-chloro-4-[4-(1,1-dimethylpiperidin-1-ium-4-carbonyl)piperazine-1-carbonyl]phenyl]-5-[2,3-difluoro-4-[3-(hydroxymethyl)-1-(2-methoxyethyl)pyrazol-4-yl]phenyl]-1-methyl-imidazole-2-carboxamide; formate] was run?
A: 1200 nM

Q: Which IC90 does the source give for `Cn1c(-c2ccc(-c3c[nH]nc3-c3cn[nH]c3)c(F)c2F)cnc1C(=O)Nc1ccc(C(=O)N2CCN(C(=O)C3CC[N+](C)(C)CC3)CC2)c(Cl)c1` [Example F48, N-[3-chloro-4-[4-(1,1-dimethylpiperidin-1-ium-4-carbonyl)piperazine-1-carbonyl]phenyl]-5-[2,3-difluoro-4-[3-(1H-pyrazol-4-yl)-1H-pyrazol-4-yl]phenyl]-1-methyl-imidazole-2-carboxamide; formate] here?
A: 470 nM

Q: With `COCCn1cc(-c2ccc(-c3cnc(C(=O)Nc4ccc(C(=O)N5CCN(C(=O)C[N+]6(C)CCC(O)(CN)C6)CC5)c(Cl)c4)n3C)c(F)c2F)c(C)n1` (stereo not drawn) [Example C6, N-[4-[4-[2-[3-(aminomethyl)-3-hydroxy-1-methyl-pyrrolidin-1-ium-1-yl]acetyl]piperazine-1-carbonyl]-3-chloro-phenyl]-5-[2,3-difluoro-4-[1-(2-methoxyethyl)-3-methyl-pyrazol-4-yl]phenyl]-1-methyl-imidazole-2-carboxamide; formic acid; formate] as the compound, how does the IC90 read?
A: 140 nM

Q: How did the IC90 turn out when `COCCCn1ncc(-c2ccc(-c3cnc(C(=O)Nc4ccc(C(=O)N5CCN(C(=O)[C@@H]6C[C@@H](O)C[N+]6(C)C)CC5)c(Cl)c4)n3C)c(F)c2F)c1C` [Example D12, N-[3-chloro-4-[4-[(2S,4R)-4-hydroxy-1,1-dimethyl-pyrrolidin-1-ium-2-carbonyl]piperazine-1-carbonyl]phenyl]-5-[2,3-difluoro-4-[1-(3-methoxypropyl)-5-methyl-pyrazol-4-yl]phenyl]-1-methyl-imidazole-2-carboxamide; formate] was run?
A: 200 nM

Q: `Cc1nn(-c2ccccn2)cc1-c1ccc(-c2cnc(C(=O)Nc3ccc(C(=O)N4CCN(C(=O)C5CC[N+](C)(C)CC5)CC4)c(Cl)c3)n2C)c(F)c1F` [Example F50, N-[3-chloro-4-[4-(1,1-dimethylpiperidin-1-ium-4-carbonyl)piperazine-1-carbonyl]phenyl]-5-[2,3-difluoro-4-[3-methyl-1-(2-pyridyl)pyrazol-4-yl]phenyl]-1-methyl-imidazole-2-carboxamide; formate] was tested. Which IC90 did it give?
A: 1100 nM

Q: Which IC90 does the source give for `Cn1c(-c2ccc(-c3c[nH]nc3C(F)(F)F)c(F)c2)cnc1C(=O)Nc1ccc(C(=O)N2CCN(C(=O)C3CCN(CC(N)=O)CC3)CC2)c(Cl)c1` [Example E12, N-[4-[4-[1-(2-amino-2-oxo-ethyl)piperidine-4-carbonyl]piperazine-1-carbonyl]-3-chloro-phenyl]-5-[3-fluoro-4-[3-(trifluoromethyl)-1H-pyrazol-4-yl]phenyl]-1-methyl-imidazole-2-carboxamide; 2,2,2-trifluoroacetic acid] here?
A: 150 nM

Same assay, conditions: Acinetobacter baumannii, ATCC17961, 16 h, read-out: ATCC 17961 IC90

Q: `Cc1c(-c2cnc(C(=O)Nc3ccc(C(=O)N4CCN(C(=O)CCC[N+](C)(CCCN)CC(=O)O)CC4)c(Cl)c3)n2C)ccc(-c2cnn(CCOC(F)F)c2C)c1F` (stereo not drawn) [Example N3, 3-aminopropyl-(carboxymethyl)-[4-[4-[2-chloro-4-[[5-[4-[1-[2-(difluoromethoxy)ethyl]-5-methyl-pyrazol-4-yl]-3-fluoro-2-methyl-phenyl]-1-methyl-imidazole-2-carbonyl]amino]benzoyl]piperazin-1-yl]-4-oxo-butyl]-methyl-ammonium; formate] was tested. Which IC90 did it give?
A: 352 nM

Q: `COCCn1cc(-c2ccc(-c3cnc(C(=O)Nc4ccc(C(=O)N5CCN(C(=O)C6CC[N+](C)(CC(N)=O)CC6)CC5)c(Cl)c4)n3C)c(F)c2F)c(C)n1` (stereo not drawn) [Example B1, N-[4-[4-[1-(2-amino-2-oxo-ethyl)-1-methyl-piperidin-1-ium-4-carbonyl]piperazine-1-carbonyl]-3-chloro-phenyl]-5-[2,3-difluoro-4-[1-(2-methoxyethyl)-3-methyl-pyrazol-4-yl]phenyl]-1-methyl-imidazole-2-carboxamide; formate] was tested. Which IC90 did it give?
A: 190 nM

Q: `COCCn1ncc(-c2ccc(-c3cnc(C(=O)Nc4ccc(C(=O)N5CCN(C(=O)C6CCN(CC7C[N+](C)(C)C7)CC6)CC5)c(Cl)c4)n3C)c(F)c2F)c1C` [Example B31, N-[3-chloro-4-[4-[1-[(1,1-dimethylazetidin-1-ium-3-yl)methyl]piperidine-4-carbonyl]piperazine-1-carbonyl]phenyl]-5-[2,3-difluoro-4-[1-(2-methoxyethyl)-5-methyl-pyrazol-4-yl]phenyl]-1-methyl-imidazole-2-carboxamide] was tested. Which IC90 did it give?
A: 71 nM

Q: `COCCn1ncc(-c2ccc(-c3cnc(C(=O)Nc4ccc(C(=O)N5CCN(C(=O)C6CC[N+](C)(CC(=O)NN)CC6)CC5)c(Cl)c4)n3C)c(F)c2F)c1C` (stereo not drawn) [Example B17, N-[3-chloro-4-[4-[1-(2-hydrazino-2-oxo-ethyl)-1-methyl-piperidin-1-ium-4-carbonyl]piperazine-1-carbonyl]phenyl]-5-[2,3-difluoro-4-[1-(2-methoxyethyl)-5-methyl-pyrazol-4-yl]phenyl]-1-methyl-imidazole-2-carboxamide; formic acid; formate] was tested. Which IC90 did it give?
A: 260 nM

Q: For `COCCn1nc(C)c(-c2ccc(-c3cnc(C(=O)Nc4ccc(C(=O)N5CCN(C(=O)C6CC[N+](C)(CCO)CC6)CC5)c(Cl)c4)n3C)cc2)c1C` (stereo not drawn) [Example B11, N-[3-chloro-4-[4-[1-(2-hydroxyethyl)-1-methyl-piperidin-1-ium-4-carbonyl]piperazine-1-carbonyl]phenyl]-5-[4-[1-(2-methoxyethyl)-3,5-dimethyl-pyrazol-4-yl]phenyl]-1-methyl-imidazole-2-carboxamide; formate], which IC90 is on record?
A: 170 nM

Q: `COCCn1ncc(-c2ccc(-c3cnc(C(=O)Nc4ccc(C(=O)N5CCN(C(=O)[C@@H]6C[C@@H](O)C[N+]6(C)C)CC5)c(Cl)c4)n3C)c(C)c2F)c1C` [Example O11, N-[3-chloro-4-[4-[(2S,4R)-4-hydroxy-1,1-dimethyl-pyrrolidin-1-ium-2-carbonyl]piperazine-1-carbonyl]phenyl]-5-[3-fluoro-4-[1-(2-methoxyethyl)-5-methyl-pyrazol-4-yl]-2-methyl-phenyl]-1-methyl-imidazole-2-carboxamide; 2,2,2-trifluoroacetate] was tested. Which IC90 did it give?
A: 156 nM
